These results are taken from publication PMC4669708 (Cell Death & Disease, 2015).

What all share (assay): c-ponatinib pulldown LC-MS/MS
Holding throughout (format): binding

One experiment concerns the target HSPA4 (Homo sapiens, UniProt P34932). As to the method:
(§1) Drug-affinity matrices were prepared as described previously.[51] In brief, 25 nmol of c-ponatinib were immobilized on 50 μl NHS-activated Sepharose 4 Fast Flow beads (GE Healthcare Bio-Sciences AB, Uppsala, Sweden). 10 mg whole cell lysate was used as protein input per replicate. Affinity chromatography and elution were performed in duplicate. After elution, the enriched proteins were reduced with dithiothreitol (DTT) and cysteine residues were alkylated by incubation with iodoacetamide. The samples were digested with modified porcine trypsin (Promega). Five percent of the digested eluates were purified and concentrated by C18 reversed-phase material. Subsequently, samples were analyzed in duplicates by gel-free one-dimensional LCMS.
(§2) Precursor and MS/MS peaks were extracted from the RAW files and saved in the MGF format using msconvert tool (ProteoWizard Library v2.1.2708, www.proteowizard.sourceforge.net) for subsequent protein identification. An initial database search was performed with broader mass tolerance and conservative score threshold to re-calibrate the mass lists for optimal final protein identification. For the initial protein database search, Mascot (www.matrixscience.com, v2.3.02) was used. Error tolerances on the precursor and fragment ions were ±10 p.p.m. and ±0.6 Da, respectively, and the database search limited to fully-tryptic peptides with maximum one missed cleavage, carbamidomethyl cysteine and methionine oxidation set as fixed and variable modifications, respectively. The Mascot peptide ion score threshold was set to 30, and at least three peptide identifications per protein were required. Searches were performed against the human UniProtKB/SwissProt database (www.uniprot.org release 2013.01) including all protein isoforms. The initial peptide identifications were used to deduce independent linear transformations for precursor and fragment masses that would minimize the mean square deviation of measured masses from theoretical. Re-calibrated mass list files were searched against the same human protein database by a combination of Mascot and Phenyx (GeneBio SA, Geneva, Switzerland; version 2.5.14) search engines using narrower mass tolerances (±4 p.p.m. and ±0.3 Da). One missed tryptic cleavage site was allowed. Carbamidomethyl cysteine was set as a fixed modification and oxidized methionine was set as a variable modification. To validate the proteins, Mascot and Phenyx output files were processed by internally developed parsers. Proteins with ≥2 unique peptides above a score T1, or with a single peptide above a score T2 were selected as unambiguous identifications. Additional peptides for these validated proteins with score >T3 were also accepted. For Mascot searches, the following thresholds were used: T1=14, T2=40 and T3=10; Phenyx thresholds were set to 4.2, 4.75 and 3.5, respectively (P-value<10^−3). The validated proteins retrieved by the two algorithms were merged, any spectral conflicts discarded and grouped according to shared peptides. A false discovery rate of <1% for protein identifications and <0.1% for peptides (including the ones exported with lower scores) was determined by applying the same procedure against a database of reversed protein sequences. […] In addition to Mascot protein scores that were proposed as an estimate of protein abundance by the original algorithm, the modified version also included Phenyx protein scores and spectral counts. The algorithm first estimated three measure-specific P-values for each putative interaction, and, in contrast to,[69] P-value calculation utilized the quantiles of the measurements rather than the original data. The Fisher's method was used to combine the three resulting P-values into a single P-value for drug–protein interaction specificity. We have also correlated interaction P-values with the magnitude of competition effect represented by the fold reduction of spectral counts on free compound competition. […]

The next experiment deals with T1, RIPK1 (Homo sapiens, UniProt Q13546).
T1 sequence (Q13546 1-671): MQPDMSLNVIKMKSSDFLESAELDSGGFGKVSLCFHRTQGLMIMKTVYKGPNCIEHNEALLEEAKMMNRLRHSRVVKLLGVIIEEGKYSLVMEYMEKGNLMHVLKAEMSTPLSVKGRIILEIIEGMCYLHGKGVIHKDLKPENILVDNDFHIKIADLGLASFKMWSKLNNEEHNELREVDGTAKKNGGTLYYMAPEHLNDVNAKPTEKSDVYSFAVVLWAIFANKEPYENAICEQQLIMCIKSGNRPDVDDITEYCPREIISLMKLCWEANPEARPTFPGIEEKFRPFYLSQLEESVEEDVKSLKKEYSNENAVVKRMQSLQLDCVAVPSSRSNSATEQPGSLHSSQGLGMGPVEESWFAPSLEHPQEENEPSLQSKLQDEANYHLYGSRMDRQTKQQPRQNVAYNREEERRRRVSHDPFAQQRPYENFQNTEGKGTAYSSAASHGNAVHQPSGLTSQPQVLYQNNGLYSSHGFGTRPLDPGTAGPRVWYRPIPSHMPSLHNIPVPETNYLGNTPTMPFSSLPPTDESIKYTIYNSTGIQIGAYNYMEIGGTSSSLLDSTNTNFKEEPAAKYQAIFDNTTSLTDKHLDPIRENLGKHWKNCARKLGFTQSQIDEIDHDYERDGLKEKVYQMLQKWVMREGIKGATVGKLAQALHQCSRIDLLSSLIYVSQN
As to the method:
as §1, §2

Another experiment addresses TPM4 (Homo sapiens, UniProt P67936). As to the method:
as §1, §2

The next experiment has as its target UNC119 (Homo sapiens, UniProt Q13432). As to the method: as §1, §2
Another experiment addresses T2, YWHAB (Homo sapiens, UniProt P31946).
T2 sequence (P31946 1-246): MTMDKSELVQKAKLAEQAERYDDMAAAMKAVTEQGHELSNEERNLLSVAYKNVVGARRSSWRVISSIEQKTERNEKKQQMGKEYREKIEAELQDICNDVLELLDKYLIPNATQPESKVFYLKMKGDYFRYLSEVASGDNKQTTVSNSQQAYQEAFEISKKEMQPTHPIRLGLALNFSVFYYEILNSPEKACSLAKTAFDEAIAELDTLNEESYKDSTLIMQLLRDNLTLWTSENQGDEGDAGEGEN
As to the method:
as §1, §2

A further experiment deals with T3, YWHAH (Homo sapiens, UniProt Q04917).
T3 sequence (Q04917 1-246): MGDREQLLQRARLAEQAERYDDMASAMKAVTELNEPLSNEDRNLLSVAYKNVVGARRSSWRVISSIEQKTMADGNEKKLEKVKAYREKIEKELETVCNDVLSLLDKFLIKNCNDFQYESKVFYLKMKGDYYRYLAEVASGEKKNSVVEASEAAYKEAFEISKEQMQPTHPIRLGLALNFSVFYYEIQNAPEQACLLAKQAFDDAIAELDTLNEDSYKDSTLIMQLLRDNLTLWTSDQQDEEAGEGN
As to the method:
as §1, §2

Chain of HSPA4 (P34932 whole entry): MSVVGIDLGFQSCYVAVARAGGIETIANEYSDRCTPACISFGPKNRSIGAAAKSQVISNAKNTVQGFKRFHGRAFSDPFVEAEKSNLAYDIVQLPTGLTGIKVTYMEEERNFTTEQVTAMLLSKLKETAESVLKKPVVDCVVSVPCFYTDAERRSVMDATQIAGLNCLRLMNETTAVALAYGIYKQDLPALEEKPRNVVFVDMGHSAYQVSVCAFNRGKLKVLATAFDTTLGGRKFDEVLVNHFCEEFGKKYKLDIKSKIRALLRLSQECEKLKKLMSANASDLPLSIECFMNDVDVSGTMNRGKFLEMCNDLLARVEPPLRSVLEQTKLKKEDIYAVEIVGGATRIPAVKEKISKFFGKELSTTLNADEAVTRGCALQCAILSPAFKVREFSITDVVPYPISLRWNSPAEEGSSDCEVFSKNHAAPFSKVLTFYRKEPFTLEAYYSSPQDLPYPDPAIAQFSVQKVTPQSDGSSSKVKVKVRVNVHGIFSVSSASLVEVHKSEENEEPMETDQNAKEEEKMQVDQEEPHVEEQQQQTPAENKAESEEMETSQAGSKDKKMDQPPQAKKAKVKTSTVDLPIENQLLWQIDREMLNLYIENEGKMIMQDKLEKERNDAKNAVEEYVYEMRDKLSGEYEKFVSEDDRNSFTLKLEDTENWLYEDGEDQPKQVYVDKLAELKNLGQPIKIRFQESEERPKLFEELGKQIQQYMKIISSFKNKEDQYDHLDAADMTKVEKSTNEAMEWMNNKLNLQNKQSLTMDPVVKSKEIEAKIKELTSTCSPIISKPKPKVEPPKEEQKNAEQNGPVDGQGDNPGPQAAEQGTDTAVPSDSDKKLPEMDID
Chain of TPM4 (P67936 whole entry): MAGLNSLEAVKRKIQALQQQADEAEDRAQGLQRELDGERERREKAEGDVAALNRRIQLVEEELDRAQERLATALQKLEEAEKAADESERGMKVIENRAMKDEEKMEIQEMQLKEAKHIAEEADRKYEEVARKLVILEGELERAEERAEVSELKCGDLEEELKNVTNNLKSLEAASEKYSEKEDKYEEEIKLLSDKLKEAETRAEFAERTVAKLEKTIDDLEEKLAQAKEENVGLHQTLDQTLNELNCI

`Cc1ccc(C(=O)Nc2ccc(CN3CCN(CCCN)CC3)c(C(F)(F)F)c2)cc1C#Cc1cnc2cccnn12` [c-ponatinib]: the “Av. SC comp.” value on HSPA4 (+ free ponatinib) is 1.75; on RIPK1 (+ free ponatinib), 0; on TPM4 (+ free ponatinib), 0.25; on UNC119 (+ free ponatinib), 0; at YWHAB (+ free ponatinib), 1; at YWHAH (+ free ponatinib) it was 0.25. Further, the “Total SC comp.” value at HSPA4 (+ free ponatinib) is 7; at RIPK1 (+ free ponatinib), 0; at TPM4 (+ free ponatinib), 1; at UNC119 (+ free ponatinib) it was 0; at YWHAB (+ free ponatinib), 4; on YWHAH (+ free ponatinib), 1. The “Av. SC” value on HSPA4 (no competitor) was 5.5; at RIPK1 (no competitor), 1.5; at TPM4 (no competitor), 3.5; on UNC119 (no competitor), 20.5; at YWHAB (no competitor), 7; on YWHAH (no competitor) it was 6. For the same compound, the “Total SC” value on HSPA4 (no competitor) was determined as 22; on RIPK1 (no competitor) it was 6; at TPM4 (no competitor), 14; on UNC119 (no competitor), 82; at YWHAB (no competitor) it was 28; at YWHAH (no competitor) it was 24.
